Measured values published in PubChem BioAssay (NCI).
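Five compound concentrations were applied to cells in 96-well plates for 48 hours; endpoints were derived by simple linear interpolation of the resulting dose-response curve. The concentration for 50% growth inhibition is given as GI50. TGI: concentration producing complete growth inhibition.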 *1 amine or outer side, *2 acyl side, *3 side chain or, on linkers, in order; H or OH if unused. Where a SMILES comes first, the peptide text is derived from it. Bridges are numbered along the chain shown (N, C = ends). Roman numbers before positions name the chains, in order. [ ]: non-standard residue; d: D form. Actinocin(9to1) = Cc1c2oc3c(C)ccc(C(=O)[*:1])c3nc-2c(C(=O)[*:2])c(N)c1=O; NMeV = CN[CH](C(=O)O)C(C)C; Sar = CNCC(=O)O

Tests used:
Assay in all cases: NCI-60 cell line screen, 48 h
CCRF-CEM leukemia = system: CCRF-CEM leukemia
ACHN renal = system: ACHN renal
NCI-H522 lung = system: NCI-H522 lung
OVCAR-3 ovarian = system: OVCAR-3 ovarian
KM12 colon = system: KM12 colon
RXF 393 renal = system: RXF 393 renal
SNB-19 CNS = system: SNB-19 CNS
786-0 renal = system: 786-0 renal
HT29 colon = system: HT29 colon
UO-31 renal = system: UO-31 renal
IGROV1 ovarian = system: IGROV1 ovarian
A498 renal = system: A498 renal
NCI/ADR-RES ovarian = system: NCI/ADR-RES ovarian
DU-145 prostate = system: DU-145 prostate
T-47D breast = system: T-47D breast

Row | Structure (SMILES) | TGI (CCRF-CEM leukemia) [µM] | TGI (ACHN renal) [µM] | TGI (NCI-H522 lung) [µM] | GI50 (OVCAR-3 ovarian) [µM] | TGI (OVCAR-3 ovarian) [µM] | TGI (KM12 colon) [µM] | GI50 (RXF 393 renal) [µM] | TGI (RXF 393 renal) [µM] | TGI (SNB-19 CNS) [µM] | TGI (786-0 renal) [µM] | TGI (HT29 colon) [µM] | TGI (UO-31 renal) [µM] | TGI (IGROV1 ovarian) [µM] | TGI (A498 renal) [µM] | TGI (NCI/ADR-RES ovarian) [µM] | TGI (DU-145 prostate) [µM] | TGI (T-47D breast) [µM] | GI50 (DU-145 prostate) [µM]
1 | O=c1cc(-c2ccc3c(c2)OCO3)[nH]c2cc3c(cc12)OCO3 | > 100 | > 100 | > 100 | 19.5 | 43.2 | > 100 | 20.8 | 66.5 | > 100 | > 100 | > 100 | > 100 | > 100 |  |  |  |  | 
2 | C=C1c2nc3ccccc3n2C=C(c2ccc(OC)cc2)N1c1ccc(OC)cc1 | > 100 | 25 | > 100 |  | 32.2 | 44.9 |  | 29.8 | 33.9 | > 100 |  | 58.5 | 94.3 | 64.9 | 31.8 | > 100 |  | 
3 | N#CSC#CCCC#CSC#N | > 100 | 31.4 | 13.6 |  | 51.8 | 34.9 |  | 35.7 | 29 | 40.4 | 45.8 | 33.5 | 45.1 | 37.7 | 74.9 | 28.3 |  | 
4 | CCOC(=O)/C(=C/c1ccc(OC)cc1)N(CC)CC | > 100 | > 100 | > 100 |  | > 100 | > 100 |  |  | > 100 | > 100 | > 100 | > 100 | > 100 | > 100 |  |  |  | 
5 | Cc1cn(C2OC(CO[Si](C)(C)C(C)(C)C)C(N(C)O[Si](C)(C)C(C)(C)C)C2[Se]c2ccccc2)c(=O)[nH]c1=O (centres undefined) | > 100 | 18.3 | 11.6 |  | 19.9 | 16.2 |  |  | 32.2 | 9.29 | 16.8 | 13.7 | 28.2 | 49.5 | 58 | 79 |  | 
6 | Cc1nn(C(=O)Cc2ccccc2)c2c1C(c1ccccc1)SC(N)=N2 (centres undefined) | > 100 | > 100 | > 100 |  |  | > 100 |  |  | > 100 | > 100 | > 100 | > 100 | > 100 | > 100 |  | > 100 | > 100 | 
7 | CCNC(=O)c1ccc(C)c(N=NN(C)C)c1 |  | > 100 | > 100 |  | > 100 | > 100 |  |  | > 100 | > 100 | > 100 | > 100 | > 100 |  |  |  |  | 
8 | CNC(=O)NCCCC(NC(C)=O)C(=O)NCc1ccccc1 (centres undefined) | > 100 | > 100 | > 100 |  | > 100 | > 100 |  | > 100 | > 100 | > 100 | > 100 | > 100 | > 100 | > 100 |  |  |  | 
9 | CCOC(=O)c1cc(-c2ccc(OC)cc2)c([N+](=O)[O-])n1C | > 10 | > 10 | > 10 |  | > 10 | > 10 |  | 4.81 | > 10 | > 10 | > 10 | > 10 | > 10 |  | > 10 | > 10 |  | 
10 | COCCOCOC(CCCCO)c1cc(C)c(O[Si](C)(C)C(C)(C)C)c(C)c1 (centres undefined) | 18.1 | 21.6 | 6 |  | 19.2 | 18.6 |  | 10.5 | 19.2 | 24.4 |  | 17.2 | 26.7 | 26.9 |  |  |  | 
11 | O=S(=O)(O)c1cc(N=Nc2c(O)ccc3ccccc23)cc2c(S(=O)(=O)O)cccc12 | > 100 | > 100 | > 100 |  | > 100 | > 100 |  | > 100 | > 100 | > 100 | > 100 | > 100 | > 100 | > 100 | > 100 |  |  | 
12 | CC(=O)OCCOCNC(=S)N/N=C/c1ccc([N+](=O)[O-])o1 | > 100 | > 100 | > 100 |  | > 100 | > 100 |  | > 100 | > 100 | > 100 | > 100 | > 100 | > 100 | > 100 |  |  |  | 
13 | COc1cc(C2C(Cl)C(=O)N2n2cnc3ccccc3c2=O)ccc1O (centres undefined) | > 100 | > 100 | > 100 |  | > 100 | > 100 |  | > 100 | > 100 | > 100 | > 100 | > 100 | > 100 |  |  |  |  | 
14 | COc1cc(-c2cccs2)sc1-c1cccs1 | > 100 | > 100 | > 100 |  | > 100 | > 100 |  | 54.1 | > 100 | > 100 | 53.3 | > 100 | > 100 |  |  |  |  | 
15 | COc1ccc(C2Oc3cc(OC)c(OC)cc3C2CCl)cc1OC (centres undefined) | > 100 | > 100 | > 100 |  | > 100 | > 100 |  |  | > 100 | > 100 |  | > 100 |  | > 100 |  |  |  | 
16 | COC(=O)c1ccc(Cc2cc(Cc3ccc(C(=O)OC)cc3)cc(Cc3ccc(C(=O)OC)cc3)c2)cc1 |  | > 25 | > 25 |  | > 25 | > 25 |  |  | > 25 | > 25 | > 25 | > 25 | > 25 | > 25 | > 25 | > 25 |  | 
17 | COc1cc(OCCN(C)C)c2[nH]c(C(=O)N3CC(CCl)c4ccc(N)cc43)cc2c1 (centres undefined) | 0.0684 |  |  |  | 0.607 | 0.126 |  | 0.033 | 2.59 | 1.47 | 0.262 | 2.25 |  | 0.508 | 1 | 1.02 |  | 
18 | CCOC(=O)C12OC(OCC)(CC1(OCC)OCC)C1(CC1)C2=O (centres undefined) | > 100 | > 100 |  |  | > 100 | > 100 |  |  | > 100 | > 100 | > 100 | > 100 | > 100 | > 100 | > 100 | > 100 |  | 
19 | CCCC/C=C/C=C/C=C/CCCCCCCC(=O)OCC(COC(=O)CCCCCCC/C=C/C1C=CC(CCCC)C(C(=O)O)C1C(=O)O)OC(=O)CCCCCCC/C=C/C=C/C=C/CCCC (centres undefined) (tested in a mixture with another compound) | 34.2 | 33.2 |  |  | 38.3 | 34.6 |  |  | 46.1 | 31.7 | 35.3 | 34.7 | 37.8 | 34.4 |  |  |  | 
20 | N#Cc1cccc(-n2[nH]c(=O)ccc2=O)c1 | > 100 | > 100 | > 100 |  | > 100 | > 100 |  |  | > 100 | > 100 | > 100 | > 100 | > 100 |  |  |  |  | 
21 | CON(C)C(=O)C(C)N(Cc1ccccc1)Cc1ccccc1 (centres undefined) | > 100 | > 100 |  |  | > 100 | > 100 |  | > 100 | > 100 | > 100 | > 100 | > 100 | > 100 | > 100 | > 100 | > 100 |  | 
22 | O=C1/C(=C/c2ccco2)NC(=S)N1CN1CCCCC1 | > 100 | > 100 | > 100 |  | > 100 | > 100 |  |  | > 100 | > 100 | > 100 | > 100 | > 100 | > 100 | > 100 | > 100 |  | 
23 | Nc1nc(Cl)cc(OCC2(CO)CC=CC2)n1 | > 100 | > 100 | > 100 |  | > 100 |  |  | > 100 | > 100 | > 100 | > 100 |  | > 100 | > 100 | > 100 | > 100 |  | 
24 | Cc1c2oc3c(C)ccc(C(=O)NC4C(=O)NC(C(C)C)C(=O)N5CCCC5C(=O)N(C)CC(=O)N(C)C(C(C)C)C(=O)OC4C)c3nc-2c(C(=O)NC2C(=O)NC(C(C)C)C(=O)N3CCCC3C(=O)N(C)CC(=O)N(C)C(C(C)C)C(=O)OC2C)c(N)c1=O (centres undefined) (I: TVP[Sar][NMeV] / II: TVP[Sar][NMeV]; ester I:1-I:C, II:1-II:C; linker I:N-II:N via Actinocin(9to1); configuration not given here) | 0.0033 |  | 0.00137 |  | 0.00907 | 0.019 |  | 0.00653 | > 0.35 | > 1 | 0.00207 | 0.12 | > 0.396 | 0.0152 | > 1 | > 1 |  | 0.00129
25 | O=C1/C(=C\c2ccc(Cl)cc2Cl)Sc2scc(-c3ccc(O)c(O)c3)[n+]21 | 39.4 | 46.3 | 39.4 |  | 23.2 | 33.9 |  | 37.1 | 48.8 | 31.6 | 32.6 | 26.8 | 50.7 |  | 35.6 | 41.9 |  | 
26 | CCOC(=O)C(=[N+]=[N-])C(=O)CN1C(=O)c2ccccc2C1=O |  | > 100 | > 100 |  | > 100 |  |  | > 100 | > 100 | > 100 | > 100 | > 100 | > 100 | > 100 |  | > 100 | > 100 | 
